SMILES strings stand for the structures.

In general, IC50 refers to the concentration that inhibits the measured activity by half.

In the experiment the target is T1, human EP3 receptor (Homo sapiens, UniProt P43115).
T1 construct: expressed in transfected cells; host or cells: CHO K1 (Chinese Hamster Ovary), stably co-transfected with Galpha16 and mitochondrial clytin
T1 sequence (P43115 1-390): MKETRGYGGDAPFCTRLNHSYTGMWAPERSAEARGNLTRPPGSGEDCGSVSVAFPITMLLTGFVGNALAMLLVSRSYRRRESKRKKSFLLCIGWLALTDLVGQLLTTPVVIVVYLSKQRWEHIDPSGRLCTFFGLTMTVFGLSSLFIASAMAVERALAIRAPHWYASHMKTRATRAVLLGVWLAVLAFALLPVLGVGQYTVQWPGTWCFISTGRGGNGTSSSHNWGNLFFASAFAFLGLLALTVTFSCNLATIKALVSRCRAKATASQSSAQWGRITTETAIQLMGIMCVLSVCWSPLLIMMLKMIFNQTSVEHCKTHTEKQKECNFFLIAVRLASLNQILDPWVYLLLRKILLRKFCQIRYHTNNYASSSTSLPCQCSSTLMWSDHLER
The experiment is described as follows: Cellular in vitro assay for determining EP3 receptor activity (human EP3 cell line, sulprostone-stimulated calcium luminescence). Particulars: CHO cells expressing human EP3 and mitochondrial Clytin; antagonist mode, sulprostone at EC50; read-out: EP3 CHO mtCLY ANTAG IC50. In kind it is cell-based. In short, it runs like this:
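CHO K1 cells stably expressing human EP3 with Gα16 and mitochondrial Clytin, loaded overnight with coelenterazine. Compounds added 10 min before sulprostone at its EC50; antagonism read immediately as reduced calcium-driven luminescence, quadruplicate points.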
Regarding `CCc1ccc(C(C)NC(=O)c2nn3c(C)c(-c4ccc5ccccc5c4)[nH]c(=O)c3c2C)cc1` (stereo not shown) [Example 3-26, N-[1-(4-Ethylphenyl)ethyl]-3,7-dimethyl-6-(2-naphthyl)-4-oxo-5H-pyrazolo[1,5-a]pyrazine-2-carboxamide], the IC50 stood at 4.15 nM. In the case of `Cc1c(C(=O)NC2(c3ccc(C#N)cc3)CC2)nn2c(C)c(-c3ccc4ccccc4c3)[nH]c(=O)c12` [Example 3-27, N-[1-(4-Cyanophenyl)cyclopropyl]-3,7-dimethyl-6-(naphthalen-2-yl)-4-oxo-4,5-dihydropyrazolo[1,5-a]pyrazine-2-carboxamide], the IC50 came to 2.1 nM.

In the case of `COc1ccccc1C(C)NC(=O)c1nn2c(C)c(-c3ccc4ccccc4c3)[nH]c(=O)c2c1C` (stereo not shown) [Example 3-28, N-[1-(2-Methoxyphenyl)ethyl]-3,7-dimethyl-6-(2-naphthyl)-4-oxo-5H-pyrazolo[1,5-a]pyrazine-2-carboxamide], the IC50 turned out to be 4.3 nM. Consider `Cc1c(C(=O)N[C@H]2CCc3ccccc32)nn2c(C)c(-c3ccc4ccccc4c3)[nH]c(=O)c12` [Example 3-29, N-[(7S)-2,3-Dihydro-1H-inden-1-yl]-3,7-dimethyl-6-(naphthalen-2-yl)-4-oxo-4,5-dihydropyrazolo[1,5-a]pyrazine-2-carboxamide], for which the IC50 was determined as 4.65 nM. For `Cc1c(C(=O)NC(C)(C)c2cc(Cl)cc(Cl)c2)nn2c(C)c(-c3ccc4ccccc4c3)[nH]c(=O)c12` [Example 3-30, N-[2-(3,5-Dichlorophenyl)propan-2-yl]-3,7-dimethyl-6-(naphthalen-2-yl)-4-oxo-4,5-dihydropyrazolo[1,5-a]pyrazine-2-carboxamide] the value was 9.4 nM; for `Cc1c(C(=O)NC(C)c2ccc3c(c2)OCCO3)nn2c(C)c(-c3ccc4ccccc4c3)[nH]c(=O)c12` (stereo not shown) [Example 3-31, N-[1-(2,3-Dihydro-1,4-benzodioxin-6-yl)ethyl]-3,7-dimethyl-6-(2-naphthyl)-4-oxo-5H-pyrazolo[1,5-a]pyrazine-2-carboxamide], 4.45 nM; for `Cc1c(C(=O)NC2(c3ccc(Cl)cc3)CCC2)nn2c(C)c(-c3ccc4ccccc4c3)[nH]c(=O)c12` [Example 3-32, N-[1-(4-Chlorophenyl)cyclobutyl]-3,7-dimethyl-6-(naphthalen-2-yl)-4-oxo-4,5-dihydropyrazolo[1,5-a]pyrazine-2-carboxamide], 5.8 nM. For `CC[C@@H](NC(=O)c1nn2c(C)c(-c3ccc4ccccc4c3)[nH]c(=O)c2c1C)c1ccccc1` [Example 3-33, 3,7-Dimethyl-6-(naphthalen-2-yl)-4-oxo-N-[(7R)-1-phenylpropyl]-4,5-dihydropyrazolo[1,5-a]pyrazine-2-carboxamide] the value was 2.2 nM; for `Cc1c(C(=O)NC2(c3ccccc3)CCOCC2)nn2c(C)c(-c3ccc4ccccc4c3)[nH]c(=O)c12` [Example 3-34, 3,7-Dimethyl-6-(2-naphthyl)-4-oxo-N-(4-phenyltetrahydro-2H-pyran-4-yl)-4,5-dihydropyrazolo[1,5-a]pyrazine-2-carboxamide], 6.05 nM. Take `COc1ccc(C(NC(=O)c2nn3c(C)c(-c4ccc5ccccc5c4)[nH]c(=O)c3c2C)C2CC2)cc1` (stereo not shown) [Example 3-35, N-[Cyclopropyl(4-methoxyphenyl)methyl]-3,7-dimethyl-6-(2-naphthyl)-4-oxo-5H-pyrazolo[1,5-a]pyrazine-2-carboxamide]: the IC50 stood at 5.05 nM. Consider `Cc1c(C(=O)NCc2cccc(CN3CCCC3)c2)nn2c(C)c(-c3ccc4ccccc4c3)[nH]c(=O)c12` [Example 3-36, 3,7-Dimethyl-6-(naphthalen-2-yl)-4-oxo-N-({3-[(pyrrolidin-1-yl)methyl]phenyl}methyl)-4,5-dihydropyrazolo[1,5-a]pyrazine-2-carboxamide], for which the 50% inhibitory concentration (IC50) was 6.55 nM.

As to `COc1ccc(C(CCO)NC(=O)c2nn3c(C)c(-c4ccc5ccccc5c4)[nH]c(=O)c3c2C)cc1` (stereo not shown) [Example 3-37, N-[3-Hydroxy-1-(4-methoxyphenyl)propyl]-3,7-dimethyl-6-(2-naphthyl)-4-oxo-5H-pyrazolo[1,5-a]pyrazine-2-carboxamide], the IC50 came out at 2.4 nM. Regarding `COc1ccc(C(C)NC(=O)c2nn3c(C)c(-c4ccc5ccccc5c4)[nH]c(=O)c3c2C)cn1` (stereo not shown) [Example 3-38, N-[1-(6-Methoxy-3-pyridyl)ethyl]-3,7-dimethyl-6-(2-naphthyl)-4-oxo-5H-pyrazolo[1,5-a]pyrazine-2-carboxamide], the IC50 worked out at 1.85 nM. As to `COc1cccc(C(CCO)NC(=O)c2nn3c(C)c(-c4ccc5ccccc5c4)[nH]c(=O)c3c2C)c1` (stereo not shown) [Example 3-39, N-[3-Hydroxy-1-(3-methoxyphenyl)propyl]-3,7-dimethyl-6-(2-naphthyl)-4-oxo-5H-pyrazolo[1,5-a]pyrazine-2-carboxamide], the IC50 was found to be 1.8 nM. With `Cc1c(C(=O)NC(CO)c2cc(Cl)cc(Cl)c2)nn2c(C)c(-c3ccc4ccccc4c3)[nH]c(=O)c12` (stereo not shown) [Example 3-40, N-[1-(3,5-Dichlorophenyl)-2-hydroxyethyl]-3,7-dimethyl-6-(2-naphthyl)-4-oxo-5H-pyrazolo[1,5-a]pyrazine-2-carboxamide] the figure was 7.6 nM.

`Cc1c(C(=O)NC(c2ccc(F)cc2)C(C)C)nn2c(C)c(-c3ccc4ccccc4c3)[nH]c(=O)c12` (stereo not shown) [Example 3-41, N-[1-(4-Fluorophenyl)-2-methylpropyl]-3,7-dimethyl-6-(2-naphthyl)-4-oxo-5H-pyrazolo[1,5-a]pyrazine-2-carboxamide]: the IC50 amounted to 3.95 nM. Turning to `Cc1c(C(=O)NCc2cccc(CN(C)C)c2)nn2c(C)c(-c3ccc4ccccc4c3)[nH]c(=O)c12` [Example 3-42, N-({3-[(Dimethylamino)methyl]phenyl}methyl)-3,7-dimethyl-6-(naphthalen-2-yl)-4-oxo-4,5-dihydropyrazolo[1,5-a]pyrazine-2-carboxamide], the IC50 is 4.9 nM. Turning to `Cc1c(C(=O)NC(C)c2ccccc2OC(F)F)nn2c(C)c(-c3ccc4ccccc4c3)[nH]c(=O)c12` (stereo not shown) [Example 3-43, N-[1-[2-(Difluoromethoxy)phenyl]ethyl]-3,7-dimethyl-6-(2-naphthyl)-4-oxo-5H-pyrazolo[1,5-a]pyrazine-2-carboxamide], the half-maximal inhibitory concentration (IC50) stood at 3.85 nM. With `CCn1cc(CNC(=O)c2nn3cc(-c4ccc5ccccc5c4)[nH]c(=O)c3c2C#N)c(C)n1` [Example 3-44, 3-Cyano-N-[(1-ethyl-3-methyl-1H-pyrazol-4-yl)methyl]-6-(naphthalen-2-yl)-4-oxo-4,5-dihydropyrazolo[1,5-a]pyrazine-2-carboxamide] the figure was 2.6 nM; with `Cn1cc(CNC(=O)c2nn3cc(-c4ccc5ccccc5c4)[nH]c(=O)c3c2C#N)cn1` [Example 3-45, 3-Cyano-N-[(1-methyl-1H-pyrazol-4-yl)methyl]-6-(naphthalen-2-yl)-4-oxo-4,5-dihydropyrazolo[1,5-a]pyrazine-2-carboxamide], 8.75 nM.

`C[C@H](NC(=O)c1nn2cc(-c3ccc4ccccc4c3)[nH]c(=O)c2c1C#N)c1ccccc1` [Example 3-46, 3-Cyano-6-(naphthalen-2-yl)-4-oxo-N-[(1S)-1-phenylethyl]-4,5-dihydropyrazolo[1,5-a]pyrazine-2-carboxamide]: the IC50 was determined as 3.2 nM. Take `CC(NC(=O)c1nn2cc(-c3ccc4ccccc4c3)[nH]c(=O)c2c1C#N)c1cccc(Br)c1` (stereo not shown) [Example 3-47, N-[1-(3-Bromophenyl)ethyl]-3-cyano-6-(2-naphthyl)-4-oxo-5H-pyrazolo[1,5-a]pyrazine-2-carboxamide]: the IC50 worked out at 5.45 nM.
